Experimental data: BigSolDB 2.1

CC1(C)[C@H](C(=O)O)[C@@H]1/C=C(\Cl)C(F)(F)F (racemic)
solubility (mole fraction) (in cyclohexane, 283.15 K): 0.00261 | solubility (mole fraction) (in cyclohexane, 288.15 K): 0.00304 | solubility (mole fraction) (in cyclohexane, 293.15 K): 0.00447 | solubility (mole fraction) (in cyclohexane, 298.15 K): 0.00592 | solubility (mole fraction) (in cyclohexane, 303.15 K): 0.00821 | solubility (mole fraction) (in cyclohexane, 308.15 K): 0.0119 | solubility (mole fraction) (in cyclohexane, 313.15 K): 0.0175 | solubility (mole fraction) (in cyclohexane, 318.15 K): 0.0258 | solubility (mole fraction) (in cyclohexane, 323.15 K): 0.0384 | solubility (mole fraction) (in ethanol, 283.15 K): 0.077 | solubility (mole fraction) (in ethanol, 288.15 K): 0.0817 | solubility (mole fraction) (in ethanol, 293.15 K): 0.0944 | solubility (mole fraction) (in ethanol, 298.15 K): 0.106 | solubility (mole fraction) (in ethanol, 303.15 K): 0.121 | solubility (mole fraction) (in ethanol, 308.15 K): 0.143 | solubility (mole fraction) (in ethanol, 313.15 K): 0.168 | solubility (mole fraction) (in ethanol, 318.15 K): 0.195 | solubility (mole fraction) (in ethanol, 323.15 K): 0.228 | solubility (mole fraction) (in ethyl acetate, 283.15 K): 0.0818 | solubility (mole fraction) (in ethyl acetate, 288.15 K): 0.0938 | solubility (mole fraction) (in ethyl acetate, 293.15 K): 0.109 | solubility (mole fraction) (in ethyl acetate, 298.15 K): 0.123 | solubility (mole fraction) (in ethyl acetate, 303.15 K): 0.141 | solubility (mole fraction) (in ethyl acetate, 308.15 K): 0.165 | solubility (mole fraction) (in ethyl acetate, 313.15 K): 0.186 | solubility (mole fraction) (in ethyl acetate, 318.15 K): 0.217 | solubility (mole fraction) (in ethyl acetate, 323.15 K): 0.243 | solubility (mole fraction) (in isobutanol, 283.15 K): 0.0701 | solubility (mole fraction) (in isobutanol, 288.15 K): 0.0843 | solubility (mole fraction) (in isobutanol, 293.15 K): 0.099 | solubility (mole fraction) (in isobutanol, 298.15 K): 0.116 | solubility (mole fraction) (in isobutanol, 303.15 K): 0.13 | solubility (mole fraction) (in isobutanol, 308.15 K): 0.147 | solubility (mole fraction) (in isobutanol, 313.15 K): 0.168 | solubility (mole fraction) (in isobutanol, 318.15 K): 0.2 | solubility (mole fraction) (in isobutanol, 323.15 K): 0.233 | solubility (mole fraction) (in methanol, 283.15 K): 0.058 | solubility (mole fraction) (in methanol, 288.15 K): 0.0664 | solubility (mole fraction) (in methanol, 293.15 K): 0.0722 | solubility (mole fraction) (in methanol, 298.15 K): 0.0813 | solubility (mole fraction) (in methanol, 303.15 K): 0.098 | solubility (mole fraction) (in methanol, 308.15 K): 0.119 | solubility (mole fraction) (in methanol, 313.15 K): 0.139 | solubility (mole fraction) (in methanol, 318.15 K): 0.166 | solubility (mole fraction) (in methanol, 323.15 K): 0.191 | solubility (mole fraction) (in methyl acetate, 283.15 K): 0.0727 | solubility (mole fraction) (in methyl acetate, 288.15 K): 0.0848 | solubility (mole fraction) (in methyl acetate, 293.15 K): 0.0976 | solubility (mole fraction) (in methyl acetate, 298.15 K): 0.114 | solubility (mole fraction) (in methyl acetate, 303.15 K): 0.129 | solubility (mole fraction) (in methyl acetate, 308.15 K): 0.151 | solubility (mole fraction) (in methyl acetate, 313.15 K): 0.171 | solubility (mole fraction) (in methyl acetate, 318.15 K): 0.2 | solubility (mole fraction) (in methyl acetate, 323.15 K): 0.226 | solubility (mole fraction) (in n-butanol, 283.15 K): 0.0748 | solubility (mole fraction) (in n-butanol, 288.15 K): 0.0848 | solubility (mole fraction) (in n-butanol, 293.15 K): 0.0964 | solubility (mole fraction) (in n-butanol, 298.15 K): 0.11 | solubility (mole fraction) (in n-butanol, 303.15 K): 0.129 | solubility (mole fraction) (in n-butanol, 308.15 K): 0.149 | solubility (mole fraction) (in n-butanol, 313.15 K): 0.167 | solubility (mole fraction) (in n-butanol, 318.15 K): 0.203 | solubility (mole fraction) (in n-butanol, 323.15 K): 0.239 | solubility (mole fraction) (in n-butyl acetate, 283.15 K): 0.089 | solubility (mole fraction) (in n-butyl acetate, 288.15 K): 0.102 | solubility (mole fraction) (in n-butyl acetate, 293.15 K): 0.119 | solubility (mole fraction) (in n-butyl acetate, 298.15 K): 0.135 | solubility (mole fraction) (in n-butyl acetate, 303.15 K): 0.153 | solubility (mole fraction) (in n-butyl acetate, 308.15 K): 0.175 | solubility (mole fraction) (in n-butyl acetate, 313.15 K): 0.195 | solubility (mole fraction) (in n-butyl acetate, 318.15 K): 0.223 | solubility (mole fraction) (in n-butyl acetate, 323.15 K): 0.247 | solubility (mole fraction) (in n-propanol, 283.15 K): 0.0753 | solubility (mole fraction) (in n-propanol, 288.15 K): 0.0829 | solubility (mole fraction) (in n-propanol, 293.15 K): 0.0944 | solubility (mole fraction) (in n-propanol, 298.15 K): 0.109 | solubility (mole fraction) (in n-propanol, 303.15 K): 0.13 | solubility (mole fraction) (in n-propanol, 308.15 K): 0.142 | solubility (mole fraction) (in n-propanol, 313.15 K): 0.173 | solubility (mole fraction) (in n-propanol, 318.15 K): 0.213 | solubility (mole fraction) (in n-propanol, 323.15 K): 0.252 | solubility (mole fraction) (in sec-butanol, 283.15 K): 0.0987 | solubility (mole fraction) (in sec-butanol, 288.15 K): 0.111 | solubility (mole fraction) (in sec-butanol, 293.15 K): 0.138 | solubility (mole fraction) (in sec-butanol, 298.15 K): 0.161 | solubility (mole fraction) (in sec-butanol, 303.15 K): 0.179 | solubility (mole fraction) (in sec-butanol, 308.15 K): 0.204 | solubility (mole fraction) (in sec-butanol, 313.15 K): 0.231 | solubility (mole fraction) (in sec-butanol, 318.15 K): 0.265 | solubility (mole fraction) (in sec-butanol, 323.15 K): 0.285 | solubility (mole fraction) (in tert-butanol, 283.15 K): 0.13 | solubility (mole fraction) (in tert-butanol, 288.15 K): 0.144 | solubility (mole fraction) (in tert-butanol, 293.15 K): 0.169 | solubility (mole fraction) (in tert-butanol, 298.15 K): 0.197 | solubility (mole fraction) (in tert-butanol, 303.15 K): 0.224 | solubility (mole fraction) (in tert-butanol, 308.15 K): 0.247 | solubility (mole fraction) (in tert-butanol, 313.15 K): 0.271 | solubility (mole fraction) (in tert-butanol, 318.15 K): 0.3 | solubility (mole fraction) (in tert-butanol, 323.15 K): 0.331
